Results published in patent publication US20240415914A1, “Water Dispersible Cannabinoid Compositions” (priority 2021, published 2024).

Test: Stability of cannabinoid and Vitamin E components of Beverage 1 (AB White) stored at 8° C. and 21-25° C., LCMSMS over 570 days
Type: physicochemical
Settings: for Stability in AB White, 8° C. (content by LCMSMS): beverage stored at 8° C.; for Stability in AB White, 21-25° C. (content by LCMSMS): beverage stored at 21-25° C.
Method: The LCMSMS was calibrated for 0-1000 ng/ml cannabinoids with the same resin material used in the preparation of the concentrates. At each time period, 100 ml of beverage was diluted with 10 ml of methanol and injected into the LCMSMS for analysis.

CCCCCc1cc(O)c(C/C=C(\C)CCC=C(C)C)c(O)c1 [CBG, cannabigerol]
Stability in AB White, 8° C. (content by LCMSMS) (day 0): 4.87 µg/mL
Stability in AB White, 8° C. (content by LCMSMS) (day 1): 4.74 µg/mL
Stability in AB White, 8° C. (content by LCMSMS) (day 2): 4.91 µg/mL
Stability in AB White, 8° C. (content by LCMSMS) (day 3): 4.74 µg/mL
Stability in AB White, 8° C. (content by LCMSMS) (day 5): 4.88 µg/mL
Stability in AB White, 8° C. (content by LCMSMS) (day 8): 4.86 µg/mL
Stability in AB White, 8° C. (content by LCMSMS) (day 9): 4.89 µg/mL
Stability in AB White, 8° C. (content by LCMSMS) (day 10): 4.77 µg/mL
Stability in AB White, 8° C. (content by LCMSMS) (day 11): 4.87 µg/mL
Stability in AB White, 8° C. (content by LCMSMS) (day 12): 4.87 µg/mL
Stability in AB White, 8° C. (content by LCMSMS) (day 15): 4.81 µg/mL
Stability in AB White, 8° C. (content by LCMSMS) (day 16): 4.84 µg/mL
Stability in AB White, 8° C. (content by LCMSMS) (day 17): 4.78 µg/mL
Stability in AB White, 8° C. (content by LCMSMS) (day 18): 4.81 µg/mL
Stability in AB White, 8° C. (content by LCMSMS) (day 19): 4.83 µg/mL
Stability in AB White, 8° C. (content by LCMSMS) (day 22): 4.75 µg/mL
Stability in AB White, 8° C. (content by LCMSMS) (day 23): 4.89 µg/mL
Stability in AB White, 8° C. (content by LCMSMS) (day 24): 4.83 µg/mL
Stability in AB White, 8° C. (content by LCMSMS) (day 25): 4.89 µg/mL
Stability in AB White, 8° C. (content by LCMSMS) (day 26): 4.77 µg/mL
Stability in AB White, 8° C. (content by LCMSMS) (day 29): 4.91 µg/mL
Stability in AB White, 8° C. (content by LCMSMS) (day 30): 4.79 µg/mL
Stability in AB White, 8° C. (content by LCMSMS) (day 60): 4.68 µg/mL
Stability in AB White, 8° C. (content by LCMSMS) (day 90): 4.66 µg/mL
Stability in AB White, 8° C. (content by LCMSMS) (day 120): 4.89 µg/mL
Stability in AB White, 8° C. (content by LCMSMS) (day 150): 4.83 µg/mL
Stability in AB White, 8° C. (content by LCMSMS) (day 180): 4.71 µg/mL
Stability in AB White, 8° C. (content by LCMSMS) (day 210): 4.73 µg/mL
Stability in AB White, 8° C. (content by LCMSMS) (day 240): 4.69 µg/mL
Stability in AB White, 8° C. (content by LCMSMS) (day 270): 4.72 µg/mL
Stability in AB White, 8° C. (content by LCMSMS) (day 300): 4.74 µg/mL
Stability in AB White, 8° C. (content by LCMSMS) (day 330): 4.69 µg/mL
Stability in AB White, 8° C. (content by LCMSMS) (day 360): 4.66 µg/mL
Stability in AB White, 8° C. (content by LCMSMS) (day 390): 4.68 µg/mL
Stability in AB White, 8° C. (content by LCMSMS) (day 420): 4.66 µg/mL
Stability in AB White, 8° C. (content by LCMSMS) (day 450): 4.68 µg/mL
Stability in AB White, 8° C. (content by LCMSMS) (day 480): 4.64 µg/mL
Stability in AB White, 8° C. (content by LCMSMS) (day 510): 4.49 µg/mL
Stability in AB White, 8° C. (content by LCMSMS) (day 540): 4.53 µg/mL
Stability in AB White, 8° C. (content by LCMSMS) (day 570): 4.46 µg/mL
Stability in AB White, 21-25° C. (content by LCMSMS) (day 0): 4.87 µg/mL
Stability in AB White, 21-25° C. (content by LCMSMS) (day 1): 4.73 µg/mL
Stability in AB White, 21-25° C. (content by LCMSMS) (day 2): 4.72 µg/mL
Stability in AB White, 21-25° C. (content by LCMSMS) (day 3): 4.75 µg/mL
Stability in AB White, 21-25° C. (content by LCMSMS) (day 5): 4.89 µg/mL
Stability in AB White, 21-25° C. (content by LCMSMS) (day 8): 4.90 µg/mL
Stability in AB White, 21-25° C. (content by LCMSMS) (day 9): 4.79 µg/mL
Stability in AB White, 21-25° C. (content by LCMSMS) (day 10): 4.68 µg/mL
Stability in AB White, 21-25° C. (content by LCMSMS) (day 11): 4.74 µg/mL
Stability in AB White, 21-25° C. (content by LCMSMS) (day 12): 4.88 µg/mL
Stability in AB White, 21-25° C. (content by LCMSMS) (day 15): 4.87 µg/mL
Stability in AB White, 21-25° C. (content by LCMSMS) (day 16): 4.80 µg/mL
Stability in AB White, 21-25° C. (content by LCMSMS) (day 17): 4.80 µg/mL
Stability in AB White, 21-25° C. (content by LCMSMS) (day 18): 4.72 µg/mL
Stability in AB White, 21-25° C. (content by LCMSMS) (day 19): 4.68 µg/mL
Stability in AB White, 21-25° C. (content by LCMSMS) (day 22): 4.68 µg/mL
Stability in AB White, 21-25° C. (content by LCMSMS) (day 23): 4.85 µg/mL
Stability in AB White, 21-25° C. (content by LCMSMS) (day 24): 4.80 µg/mL
Stability in AB White, 21-25° C. (content by LCMSMS) (day 25): 4.86 µg/mL
Stability in AB White, 21-25° C. (content by LCMSMS) (day 26): 4.78 µg/mL
Stability in AB White, 21-25° C. (content by LCMSMS) (day 29): 4.76 µg/mL
Stability in AB White, 21-25° C. (content by LCMSMS) (day 30): 4.73 µg/mL
Stability in AB White, 21-25° C. (content by LCMSMS) (day 60): 4.83 µg/mL
Stability in AB White, 21-25° C. (content by LCMSMS) (day 90): 4.65 µg/mL
Stability in AB White, 21-25° C. (content by LCMSMS) (day 120): 4.59 µg/mL
Stability in AB White, 21-25° C. (content by LCMSMS) (day 150): 4.63 µg/mL
Stability in AB White, 21-25° C. (content by LCMSMS) (day 180): 4.79 µg/mL
Stability in AB White, 21-25° C. (content by LCMSMS) (day 210): 4.75 µg/mL
Stability in AB White, 21-25° C. (content by LCMSMS) (day 240): 4.79 µg/mL
Stability in AB White, 21-25° C. (content by LCMSMS) (day 270): 4.62 µg/mL
Stability in AB White, 21-25° C. (content by LCMSMS) (day 300): 4.67 µg/mL
Stability in AB White, 21-25° C. (content by LCMSMS) (day 330): 4.71 µg/mL
Stability in AB White, 21-25° C. (content by LCMSMS) (day 360): 4.69 µg/mL
Stability in AB White, 21-25° C. (content by LCMSMS) (day 390): 4.70 µg/mL
Stability in AB White, 21-25° C. (content by LCMSMS) (day 420): 4.72 µg/mL
Stability in AB White, 21-25° C. (content by LCMSMS) (day 450): 4.73 µg/mL
Stability in AB White, 21-25° C. (content by LCMSMS) (day 480): 4.46 µg/mL
Stability in AB White, 21-25° C. (content by LCMSMS) (day 510): 4.51 µg/mL
Stability in AB White, 21-25° C. (content by LCMSMS) (day 540): 4.48 µg/mL
Stability in AB White, 21-25° C. (content by LCMSMS) (day 570): 4.47 µg/mL
